{"source": "patent US9034820B2", "about": "“Method and composition for modulating erythropoiesis” (priority 2011, dated 2015)", "key": {"zLPA3": {"system": "zLPA3", "experiment": "o-dianisidine blood cell staining of zLPA3 morpholino-injected zebrafish embryos", "type": "in vivo, zebrafish (Danio rerio)", "settings": "for percentages of erythrocyte-defective embryos compared to control embryos: 48 hpf and 60 hpf; for effect of LPA3 knockdown on erythrocyte formation (o-dianisidine staining; normal, moderate, severe): injected at one-cell stage, 0, 2.5 and 5 ng, 48 hpf", "method": "Wild-type zebrafish (Danio rerio) obtained from the Zebrafish Information Research Center (Eugene, Oreg., USA) were inbred at 27-28° C. Embryos were collected from natural spawning, washed, and incubated in 0.3× Danieau's buffer at 28° C. until being used. Each stage of fish embryos was determined from their morphology. Embryos at 12 hour post-fertilization (hpf) were treated with 0.2 mM 1-phenyl-2-thiourea (PTU) (Sigma, St. Louis, Mo., USA) in 0.3× Danieau's buffer to suppress melanization. Dechorionation of embryos was carried out with 0.01 g/ml protease (Sigma).\nGlass capillary tubes were pulled by a horizontal puller (P-97, Sutter Instrument, Navato, Calif., USA). Two zLPA3 translation-blocking (t)MOs (Gene Tools, Philomath, Oreg., USA) were utilized as follows:\ntMO1: 5′-[…]-3′ (−27 to −3) (SEQ ID No. 1); and\ntMO2: 5′-[…]-3′ (+1 to +23) (SEQ ID No. 2).\nThe MOs were prepared at 1 mM in sterile H2O as a stock solution, and further diluted into desired working concentrations in 1× Danieau's buffer with 0.5% phenol red. Fish embryos were fixed on 1% injection agar plates, and 2.3 nl of solution was injected into the yolk sac and blastodisc interface with a nanoliter injector (World Precision Instruments, Sarasota, Fla., USA). The injected embryos were incubated in 0.3× Danieau's buffer at 28.5° C. for further experiments.\nEmbryos from designated stages were incubated in freshly prepared o-dianisidine solution (40% ethanol, 0.01 M sodium acetate, 0.65% H2O2, and 0.6 mg/ml o-dianisidine [Sigma]) for 15 minutes in the dark."}, "[1]": {"system": "human CD133+ hematopoietic stem cells (hHSCs)", "experiment": "flow cytometry of CD71 and GlyA protein on cultured hHSCs", "type": "cell-based", "settings": "end of stage II induction", "method": "(§1) CD133^+ stem cells were isolated from human umbilical cord blood by magnetic microbead selection using Direct […] progenitor isolation beads (Miltenyi Biotech, Bergisch Gladbach, Germany) and MACS LS-columns (Miltenyi Biotech), and were subsequently cultured. In stage I, 10^5 CD133^+ cells were cultured in 10 ml of EDM (10^4 cells/ml), containing human stem cell factor (SCF, 50 ng/ml), human EPO (6 IU/ml), human interleukin (IL)-3 (10 ng/ml), human vascular endothelial growth factor (VEGF, 10 ng/ml), and human insulin-like growth factor (IGF)-II (250 ng/ml) for 6 days. In stage II, cells were cultured in 10 ml of EDM (3×10^4 cells/ml) in the presence of SCF (50 ng/ml) and EPO (6 IU/ml) for 4 days. In stage III, cells were cultured in 10 ml of EDM (5×10^4 cells/ml) in the presence of SCF (50 ng/ml) and EPO (2 IU/ml) for 6 days. Cultured cells respectively underwent 30-, 20-, and 10-fold expansions in stages I, II, and III. All cell cultures were incubated at 37° C. in 5% CO2 under humidified conditions. LPA (Sigma) was prepared in chloroform and methanol (1:9) and stored at −20° C. LPA was added to serum-free medium with 0.005% fatty acid-free BSA as a carrier.\n(§2) Ki16425 (Cayman Chemical, Ann Arbor, Mich., USA) powder was diluted in dimethyl sulfoxide (DMSO) at a concentration of 40 mM as the stock. At the ends of stages I and II, HSCs were pretreated with Ki16425 in serum-free medium for 1 h. Then, cells were cultured in media of stages II and III containing Ki16425 at a final concentration of 20 μM. Quercetin (Sigma) was dissolved in DMSO at 100 mM as the stock and stored at −20° C. Quercetin was diluted into each final concentration by culture media for treatment.\nHSC cultures were collected, washed, and stained either with anti-GlyA-PE and anti-CD71-PE/Cy5 for 30 minutes (BD Biosciences Pharmingen, San Diego, Calif., USA). Stained cells were washed and resuspended in PBS. Non-stained and single-stained samples were prepared for fluorescent compensation. […]"}, "[2]": {"system": "human CD133+ hematopoietic stem cells (hHSCs)", "experiment": "real-time PCR of erythroid marker mRNA in cultured hHSCs during erythropoietic differentiation", "type": "cell-based", "method": "as §1, §2\nTotal RNA extraction was isolated using Trizol Reagent (Invitrogen, Carlsbad, Calif., USA). Complementary (c)DNA was synthesized from 1 μg total RNA with a reverse-transcription polymerase chain reaction (RT-PCR). Primer sequences were:\nA real-time PCR with the mixture reagent SYBR®-Green I (Thermo Scientific, San Diego, Calif., USA) was carried out on an iCycler iQ™ real-time detection system (Bio-Rad, Hercules, Calif., USA). The specificity of the primers was confirmed from a single peak of the melting curve. Each target mRNA level was evaluated from the real-time threshold cycle and compared to the GAPDH amount as an internal control."}, "[3]": {"system": "human CD133+ hematopoietic stem cells (hHSCs)", "experiment": "expansion and differentiation of hHSC-derived erythroid cells in culture", "type": "cell-based", "settings": "LPA present, EPO-free, data not shown", "method": "as §1\nKi16425 (Cayman Chemical, Ann Arbor, Mich., USA) powder was diluted in dimethyl sulfoxide (DMSO) at a concentration of 40 mM as the stock. […]"}, "[4]": {"settings": "stage II, 24-hour LPA 18:1 (1~10 μM), plasma-free medium, concentration-dependent"}}, "note": "“Also recorded” adds a separate entry of the source.", "data": [{"molecule": "tMO1: zLPA3 translation-blocking morpholino 5′-CACTGTCCTAGTGGGTTTTGTCCAA-3′ (SEQ ID No. 1) (all phosphorodiamidate morpholino (PMO))", "values": [{"measurement": "percentages of erythrocyte-defective embryos compared to control embryos", "setting": "zLPA3", "value": "significantly higher"}, {"measurement": "effect of LPA3 knockdown on erythrocyte formation (o-dianisidine staining; normal, moderate, severe)", "setting": "zLPA3", "value": "dose-dependent effect"}]}, {"molecule": "O=c1c(O)c(-c2ccc(O)c(O)c2)oc2cc(O)cc(O)c12", "note": "[quercetin]", "values": [{"measurement": "LPA-induced protein expression of CD71", "setting": "[1]; quercetin (20 μM)", "value": "decreased; also recorded: suppressed"}, {"measurement": "increase in CD71 mRNA under LPA induction", "setting": "[2]; quercetin 5, 20 and 50 μM", "value": "suppressed; also recorded: inhibited"}]}, {"molecule": "tMO2: zLPA3 translation-blocking morpholino 5′-ATGGCCAGGCACAACATCTGCTA-3′ (SEQ ID No. 2) (all phosphorodiamidate morpholino (PMO))", "values": [{"measurement": "percentages of erythrocyte-defective embryos compared to control embryos", "setting": "zLPA3", "value": "significantly higher"}, {"measurement": "effect of LPA3 knockdown on erythrocyte formation (o-dianisidine staining; normal, moderate, severe)", "setting": "zLPA3", "value": "dose-dependent effect"}]}, {"molecule": "CCCCCCCC/C=C\\CCCCCCCC(=O)OCC(O)COP(=O)(O)O", "note": "(stereo not drawn) [LPA, (2-hydroxy-3-phosphonooxypropyl) (Z)-octadec-9-enoate]", "values": [{"measurement": "differentiation of erythroid cells in the absence of EPO", "setting": "[3]", "value": "severely decreased"}, {"measurement": "protein expression level of CD71", "setting": "[1]; 5 and 10 μM LPA, 4 days", "value": "higher levels"}, {"measurement": "protein expression level of GlyA", "setting": "[1]; 5 and 10 μM LPA, 4 days", "value": "not GlyA"}, {"measurement": "mRNA level of CD71", "setting": "[2]; [4]", "value": "increased; also recorded: elevated"}, {"measurement": "mRNA level of GATA-1", "setting": "[2]; [4]", "value": "elevated"}, {"measurement": "mRNA level of GlyA", "setting": "[2]; [4]", "value": "elevated"}]}]}
